From US20230000982A1, “COMPOSITION FOR PREVENTING OR TREATING CANCER, CONTAINING NOVEL TRIFLUOROMETHYL PHENYL PYRAZOLE DERIVATIVE AS ACTIVE INGREDIENT” (KOREA INSTITUTE OF RADIOLOGICAL & MEDICAL SCIENCES, priority 2019, published 2023)

Assays:
[1] = test system: Breast cancer cell lines BT549, T47D, and MCF7; test: Western blotting of survivin and apoptosis markers; type: cell-based, Human; conditions: 0, 2.5, 5, 10, and 20 μM, 24 h
Experimental: Apoptosis by KRCT-1 was confirmed through Western blotting. After separation of 20 μg of protein by SDS-PAGE electrophoresis and transferred to PVDF membrane, the following specific antibodies were used: rabbit polyclonal antibodies cleaved PARP (Asp214) (#9541) and phospho-Chk2 (Thr68) (#2661; Cell Signaling Technology, MA); rabbit monoclonal antibodies caspase3 (#9664), chk2 (#6334S), survivin (#2808S); mouse monoclonal antibody caspase 9 (551246; BD Pharmingen, Calif., USA). In addition, mouse monoclonal antibody (3-actin (C4; Santa Cruz Biotechnology, Calif., USA) was used as a loading control, washed with 1×PBS/0.1% Tween 20, and HRP-binding secondary antibody and improved chemiluminescence detection system was used to detect the binding protein, and an image of the band was obtained using the Amersham Imager 600 system (GE Healthcare Life Science), which is shown in FIG. 5b.
Breast cancer cell lines BT549, T47D, and MCF7 were treated with 0, 2.5, 5, 10, and 20 μM of KRCT-1 in a dose-dependent manner for 24 h each, and the expression level of survivin essential for the survival of cancer cells and the expression levels of an apoptosis markers, clv-PARP, caspase 9 and caspase 3 were checked. According to the concentration of the treated KRCT-1, the expression levels of survivin and pro-caspase 9 in cancer cells were decreased, and it was confirmed that the truncated PARP and caspase3 increased during apoptosis. Through the above results, it was confirmed that apoptosis was activated due to KRCT-1.

[2] = test system: breast cancer cell lines BT549, MCF7, T47D and MDA MB231; test: Colonogenic (colony formation) assay; type: cell-based, Human; conditions: 10 μM, cultured for 14 days; various breast cancer cell lines
Experimental: (§1) Human-derived tumor cell lines and breast cancer cell lines MCF7 and T47D, BT549, MDA-MB231, and MDA-MB453 was cultured in a DMEM medium (Corning, N.Y., USA), containing 10% fetal bovine serum (FBS; HyClone, South Logan, Utah) and 1% penicillin/streptomycin at 37° C. and 5% CO2 conditions.
Colonogenic analysis was performed to determine whether the selected KRCT-1 could efficiently kill cancer cells. First, cells of various breast cancer cell lines BT549, MCF7, T47D and MDA MB231 (500-1000 cells) were cultured in a 60 mm culture plate, and 24 hours later, 10 μM of the compound was treated, respectively, and cultured for 14 days.

Breast cancer cells MCF7 = test: Tumorsphere forming assay; type: cell-based, Human; conditions: cultured for 14 days; various breast cancer cell lines
Experimental: as §1
In order to determine whether the selected KRCT-1 can effectively reduce the tumorsphere formation in cancer cells, tumorsphere forming assay was performed. Breast cancer cells MCF7 (2500-10000 cells) were suspended in serum-free DMEM/F12 (welGENE), containing 1% penicillin, B-27 (1:50; invitrogen), 20 ng/mL epidermal growth factor (R&D Systems) and 20 ng/mL fibroblasts growth factors (R&D Systems) on low adhesion plates and cultured. After 24 hours had elapsed, the cells were treated with the compound and cultured for 14 days, and then the diameter of the tumorspheres was measured and quantified, which is shown in FIG. 3D.

BT549 = test: Annexin V/PI staining FACS apoptosis analysis, BT549; type: cell-based, Human; conditions: BT549, 20 μM, 48 h
Experimental: (§2) After Annexin V/PI staining, FACS analysis was performed to confirm the cancer cell killing effect. Cancer cell lines MCF7 and BT549 were treated for 48 h in the presence and absence of 20 μM of KRCT-1, and analysis of Annexin V binding was performed using the Annexin V-FITC apoptosis Detection Kit (BD Biosciences, San Jose, Calif., USA) according to the manufacturer's recommended protocol. Briefly, after collecting all cells, including the cell medium, the cells were centrifuged at 1500 rpm for 5 minutes, washed with 1×PBS, resuspended at 1×10^6 cell concentration, and then 100 μl of the cell suspension was added in a 5 ml tube, and 5 μl of Annexin V-FITC and 5 μl of PI were added thereto and cultured in the dark for 15 minutes at RT. 400 μl of 1× binding buffer was added to each tube and samples were analyzed by flow cytometry. As a result, it was confirmed that MCF7 induced about 40%, BT549 induced about 23% cell death.

Trk-A kinase [3] = target: T1, Trk-A kinase (Homo sapiens, UniProt P04629); test: In vitro kinase assay of Trk-A; type: biochemical; design: purchased Eurofins Pharma Discovery Services (commissioned via Goma Biotech); conditions: serially diluted 3-fold from 100 μM; FIG. 7b
Experimental: To measure the selective reactivity of KRCT-1 to a specific kinase, in vitro kinase assay profiling was commissioned to Goma Biotech (Seoul, Korea), and the enzyme reaction experiment was performed at Eurofins Pharma Discovery Services (Scotland, UK). For kinase profiling, 104 kinase series and 10 μM KRCT-1 were used in the reaction as a broad oncology panel. To obtain the IC50 kinase assay of Trk-A, KRCT-1 serially diluted 3-fold from 100 μM was used.

MCF7 = test: Annexin V/PI staining FACS apoptosis analysis, MCF7; type: cell-based, Human; conditions: MCF7, 20 μM, 48 h
Experimental: as §2

BT549 cell line = test: Immunodeficient mouse tumor model (xenograft) transplanted with BT549; type: in vivo; conditions: 30 mg/kg intraperitoneally twice a week
Experimental: By subcutaneously implanting a cancer cell line into an immunodeficient mouse tumor model, it was attempted to verify whether the anticancer effect of the compound actually occurs at the in vivo level. After the tumor was formed by implanting the BT549 cell line subcutaneously in the thigh of an immunodeficient mouse, in the case that the size of the tumor reached 50˜100 mm ˜3˜, the compound was intraperitoneally injected at 30 mg/kg twice a week. The tumor volume and the mouse weight were measured 3 times a week for the control group and the KRCT-1 treatment group, respectively. […] Western blotting was performed on the isolated mouse tumor for the tumor growth antigen Ki-67, which is shown B in FIG. 4b.

[4] = test system: breast cancer cell lines BT549, T47D and MCF7; test: Clonogenic assay, combination of KRCT-1 and radiation; type: cell-based, Human; conditions: 2.5 μM KRCT-1 + 2.5 Gy radiation; compared to DMSO group
Experimental: A clonogenic assay was performed to confirm the effect of the combination of KRCT-1 and radiation. To perform clonogenic assay, breast cancer cell lines BT549, T47D and MCF7 were treated with 2.5 μM of KRCT-1 compound, and 2.5 Gy radiation was used using Biobeam GM8000 (Gamma-Gamma-Service Medical GmbH, Leipzig, Germany). The experimental technique for the remaining colony formation was performed in the same manner as in the above Example, and was shown in FIG. 6a. In the group treated with KRCT-1, the radiation treatment effect of the two cancer cell lines was significant compared to the group treated with DMSO, confirming that the number of cancer cell colonies decreased.

[5] = test system: breast cancer cell lines BT549, T47D and MCF7; test: Western blotting, radiation combination effect; type: cell-based, Human; conditions: 10 μM + 3 Gy radiation, 30 h
Experimental: In order to confirm the synergistic effect of radiosensitivity of cancer cell lines through treatment with KRCT-1 through Western blotting experiments, 10 μM of KRCT-1 compound was treated in breast cancer cell lines BT549, T47D and MCF7, and Biobeam GM8000 (Gamma-Gamma-Service Medical GmbH, Leipzig, Germany) was used to culture for 30 h after treatment with 3 Gy radiation. For Western blotting, 20 μg of protein was isolated through SDS-PAGE electrophoresis and transferred to a PVDF membrane. The following specific antibodies were used: rabbit polyclonal antibody phospho-Chk2 (Thr68) (#2661; Cell Signaling Technology, MA); rabbit monoclonal antibody chk2 (#6334S) were used. The remaining conditions of Western blotting were performed in the same manner as in the above Example. […] Through the above results, it was confirmed that apoptosis of cancer cells appeared effectively.

MCF7 cells = test: γ-H2AX foci experiment (DNA damage) with radiation; type: cell-based, Human; conditions: 20 μM for 24 h + 2 Gy radiation, fixed at 1 h; compared to each control group
Experimental: To determine how KRCT-1 affects DNA damage induced by radiation, a γ-H2AX foci experiment was performed. In the case that single-stranded or double-stranded DNA is cleaved by various DNA damaging agents including radiation, γ-H2AX phosphorylation occurs and nuclear foci are generated in the cell nucleus. Using this as an index, the effect of the combination according to DNA damage was evaluated. After culturing 2.5×10^4 MCF7 cells in a 24-well plate for 48 h, KRCT-1 20 μM was treated for 24 h, and the cells were fixed at 1 h after irradiation with 2 Gy of radiation. Then, after washing with phosphate buffered saline for permeation, 4% paraformaldehyde and 0.2% Triton-X were added and reacted for 10 min each. After 1 h pretreatment with 5% fetal bovine serum, 1:100 dilution of γ-H2AX (05-656; EMD Millipore Corp., MA, USA) antibody to phosphorylated H2AX for was treated for 16 h, and it was washed 3 times with 0.1% TritonX-100/phosphate buffered saline solution (Tritonx-100/PBS). Alexa488-conjugated secondary antibody (AP132JA4, Invitrogen) was reacted for 2 h at room temperature and labeled, and phosphorylated γ-H2AX foci were photographed and analyzed with IN Cell Analyzer 6000 (GE Healthcare Life Science). […] Taken together, in cancer cells, it was confirmed that KRCT-1 is a material that can be effectively used as a radiosensitizer.

Trk-A kinase [6] = target: T1, Trk-A kinase; test: Western blotting of Trk-A downstream signaling (phosphorylated ERK, phosphorylated STAT3) in cancer cell lines; type: cell-based; conditions: 2.5, 5, 10, 20 μM; FIG. 7c
Experimental: In cancer cell lines, it was confirmed whether KRCT-1 inhibits the activity of Trk-A kinase to inhibit downstream signaling. In the case that Trk-A is activated by ligand, the MEK/ERK and STAT3 signaling pathways in the cell are activated. Using this as an indicator, changes in phosphorylated ERK and phosphorylated STAT3 were confirmed in the case that cancer cell lines were treated with KRCT-1 concentrations (2.5, 5, 10, 20 μM). For Western blotting, 20 μg of protein was isolated through SDS-PAGE electrophoresis and transferred to PVDF membrane. The following specific antibodies were used: rabbit polyclonal antibody phospho-STAT3 (Tyr705) (ab76315; Abcam, UK), mouse monoclonal antibodies phospho-ERK (Thr202/Tyr204) (sc-514302; Santa Cruz Biotechnology), ERK (sc-7383; Santa Cruz Biotechnology), and STAT3 (sc8019; Santa Cruz Biotechnology) were used. The remaining conditions of Western blotting were performed in the same manner as in the above Example.

T1 sequence (P04629 33-796): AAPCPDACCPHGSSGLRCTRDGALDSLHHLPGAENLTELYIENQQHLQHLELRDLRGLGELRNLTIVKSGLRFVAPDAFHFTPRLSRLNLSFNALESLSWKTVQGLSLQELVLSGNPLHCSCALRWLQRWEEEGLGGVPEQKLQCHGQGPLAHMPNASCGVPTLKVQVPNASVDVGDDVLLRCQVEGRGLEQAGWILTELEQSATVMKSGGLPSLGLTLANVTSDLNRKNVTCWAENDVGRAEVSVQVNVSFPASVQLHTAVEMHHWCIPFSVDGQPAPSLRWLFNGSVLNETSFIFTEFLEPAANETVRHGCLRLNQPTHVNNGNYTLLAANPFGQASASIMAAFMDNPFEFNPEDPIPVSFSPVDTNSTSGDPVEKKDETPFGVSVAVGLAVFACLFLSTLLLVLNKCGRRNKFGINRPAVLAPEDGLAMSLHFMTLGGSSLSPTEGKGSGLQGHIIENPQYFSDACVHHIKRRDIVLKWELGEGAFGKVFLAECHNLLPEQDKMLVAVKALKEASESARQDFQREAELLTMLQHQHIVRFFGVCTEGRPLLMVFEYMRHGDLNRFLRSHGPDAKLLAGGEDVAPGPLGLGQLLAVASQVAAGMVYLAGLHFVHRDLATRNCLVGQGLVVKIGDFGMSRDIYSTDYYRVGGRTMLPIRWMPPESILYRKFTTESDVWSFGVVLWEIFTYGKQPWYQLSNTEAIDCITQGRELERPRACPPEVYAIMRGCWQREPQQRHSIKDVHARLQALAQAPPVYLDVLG

CN(C)S(=O)(=O)Nc1cccc(-c2cnn(-c3ccc(C(F)(F)F)cc3)c2)c1 [KRCT-1, N,N-dimethyl-N′-(3-(1-(4-(trifluoromethyl)phenyl)-1H-pyrazol-4-yl)phenyl)azanesulfonamide]
truncated PARP [1]: increased
truncated caspase3 [1]: increased
expression level of pro-caspase 9 ([1]; according to concentration): decreased
expression level of survivin ([1]; according to concentration): decreased
number and size of cell colonies [2]: significantly reduced
diameter of cancer cell tumorspheres (Breast cancer cells MCF7): significantly reduced
cell death (Annexin V/PI FACS) (BT549): about 23%
in vitro Trk-A kinase activity (Trk-A kinase [3]): inhibition
cell death (Annexin V/PI FACS) (MCF7): about 40%
expression of Ki-67 in isolated mouse tumor (Western blotting) (BT549 cell line): significantly reduced
tumor volume and size (BT549 cell line; 4 weeks after transplantation, vs control group): smaller tumor volume and size than the control group
body weight of immunodeficient mice (BT549 cell line; weight measured 3 times a week): not significantly changed
number of cancer cell colonies after radiation [4]: decreased
expression level of phosphorylated Chk2 after radiation treatment [5]: increased
expression level of survivin after radiation treatment [5]: decreased
DNA damage (phosphorylated γ-H2AX foci) (MCF7 cells): DNA damage occurred in relatively many cancer cells
downstream signaling of Trk-A kinase in cancer cells (Trk-A kinase [6]): inhibited
